Experimental data reported in US8758775B2 (priority 2005, dated 2014).

Columns and labels:
[1] = test system: E. coli-sta enterotoxin induced diarrhoea; parameters: species or system NMRI mice; conditions: mouse, in vivo
[2] = test system: E. coli-sta enterotoxin induced diarrhoea; parameters: species or system NMRI mice; conditions: mouse, in vivo; remark: listed apart in the source
[3] = test system: heartburn in patients suffering from endoscopic negative GORD; conditions: in vivo
[4] = test system: intestinal system's proteolytic capacity and disacaridase potential; conditions: cited from earlier work

Compound: CN(C)C(=O)C(CCN1CCC(O)(c2ccc(Cl)cc2)CC1)(c1ccccc1)c1ccccc1 [loperamide]
- frequency of defecation [1]: significantly reduced (P<0.05)
- reduction in stool weight [1]: significant (P<0.05)
- mean number of stools passed [2]: reduction
- net stool weight [2]: reduction

Compound: clinoptilolite
- Reported side-effects: Bloatedness [3]: 3/10
- Reported side-effects: Constipation [3]: 2/10
- Reported side-effects: Nausea [3]: 1/10
- Reported side-effects: No side-effects [3]: 4/10
- Reported side-effects: Sleeplessness [3]: 1/10
- intestinal system's proteolytic capacity and disacaridase potential [4]: not modified
